Data set [1] has as its system P. falciparum strain 3D7. Kind of data set: Efficacy in the Pf/NSG mouse model. Type of data set: in vivo, Plasmodium falciparum. The conditions noted are these: 3D7, humanized NSG mouse.
In data set [2] the target is T1, PIK3CA(C420R) (Homo sapiens, UniProt P42336, C420R).
T1 construct: purchased Ambit (DiscoverX) KINOMEscan; Cerep
Kind of data set: KINOMEscan. Type of data set: binding. The following applies: read-out: Remaining enzyme activity. The method, then:
(§1) The KINOMEscan was carried out by Ambit (San Diego, USA) according to a previously established protocol. The experiment was based on a competition binding assay that quantitatively measures the ability of a compound to compete with an immobilized, active-site directed ligand. The assay is performed by combining three components: DNA-tagged kinase; immobilized ligand; and a test compound. The ability of the test compound to compete with the immobilized ligand is measured via quantitative PCR of the DNA tag.
(§2) For most assays, kinase-tagged T7 phage strains were grown in parallel in 24-well blocks in an Escherichia coli host derived from the BL21 strain. E. coli were grown to log-phase and infected with T7 phage from a frozen stock and incubated with shaking at 32 °C until lysis (90–150 min). The lysates were centrifuged (6,000g) and filtered (0.2 μm) to remove cell debris. The remaining kinases were produced in HEK-293 cells (Sigma Aldrich, catalogue number: 85120602) and subsequently tagged with DNA for quantitative PCR detection. […] The liganded beads were blocked with excess biotin and washed with blocking buffer (SeaBlock (Pierce), 1% bovine serum albumin, 0.05% Tween 20 and 1 mM dithiothreitol) to remove unbound ligand and to reduce non-specific phage binding. […] SC81458 was prepared as 40x stock in 100% DMSO and directly diluted into the assay to a final concentration of 10 μM. All reactions were performed in polypropylene 384-well plates in a final volume of 0.04 ml. […] The kinase concentration in the eluates was measured by quantitative PCR.

The target of data set [3] is T2, RPS6KA5(Kin.Dom.1-N-term) (Homo sapiens, UniProt O75582).
T2 construct: RPS6KA5(Kin.Dom.1-N-term); purchased Ambit (DiscoverX) KINOMEscan; Cerep
Kind of data set: KINOMEscan. It counts as binding. The following applies: read-out: Remaining enzyme activity. On the procedure:
as §1, §2

Data set [4] deals with T3, PIK4Cb (Homo sapiens, UniProt Q9UBF8).
T3 construct: purchased Ambit (DiscoverX) KINOMEscan; Cerep
Kind of data set: KINOMEscan. It counts as binding. The conditions noted are these: read-out: Remaining enzyme activity. On the procedure:
as §1, §2

For data set [5], the target named is T4, CAMK2b (Homo sapiens, UniProt Q13554).
T4 construct: purchased Ambit (DiscoverX) KINOMEscan; Cerep
Put plainly: KINOMEscan. It counts as binding. The conditions noted are these: read-out: Remaining enzyme activity. The method, then: as §1, §2

Data set [6] has as its target T5, ABL1(Q252H) (Homo sapiens, UniProt P00519, Q252H).
T5 construct: purchased Ambit (DiscoverX) KINOMEscan; Cerep
Kind of data set: KINOMEscan. The following applies: read-out: Remaining enzyme activity. Type of data set: binding. On the procedure:
as §1, §2

For data set [7], the target named is T6, CDK2 (Homo sapiens, UniProt P24941).
T6 construct: purchased Ambit (DiscoverX) KINOMEscan; Cerep
Kind of data set: KINOMEscan. Type of data set: binding. The following applies: read-out: Remaining enzyme activity. The method, then:
as §1, §2

Data set [8] deals with T7, PDGFRa (Homo sapiens, UniProt P16234).
T7 construct: purchased Ambit (DiscoverX) KINOMEscan; Cerep
Kind of data set: KINOMEscan. Type of data set: binding. The conditions noted are these: read-out: Remaining enzyme activity. The method, then: as §1, §2

Data set [9] has as its target T8, FLT4 (Homo sapiens, UniProt P35916).
T8 construct: purchased Ambit (DiscoverX) KINOMEscan; Cerep
Put plainly: KINOMEscan. The following applies: read-out: Remaining enzyme activity. Type of data set: binding. On the procedure: as §1, §2

The target in data set [10] is T9, KIT(D816V) (Homo sapiens, UniProt P10721, D816V).
T9 construct: purchased Ambit (DiscoverX) KINOMEscan; Cerep
Kind of data set: KINOMEscan. Type of data set: binding. The following applies: read-out: Remaining enzyme activity. On the procedure:
as §1, §2

The target of data set [11] is T10, NDR2 (Homo sapiens, UniProt Q9Y2H1).
T10 construct: purchased Ambit (DiscoverX) KINOMEscan; Cerep
Kind of data set: KINOMEscan. It counts as binding. The following applies: read-out: Remaining enzyme activity. On the procedure:
as §1, §2

The target of data set [12] is T11, ERK3 (Homo sapiens, UniProt Q16659).
T11 construct: purchased Ambit (DiscoverX) KINOMEscan; Cerep
Put plainly: KINOMEscan. Type of data set: binding. The conditions noted are these: read-out: Remaining enzyme activity. On the procedure:
as §1, §2

The target in data set [13] is T12, PFTK1 (Homo sapiens, UniProt O94921).
T12 construct: purchased Ambit (DiscoverX) KINOMEscan; Cerep
Kind of data set: KINOMEscan. It counts as binding. The following applies: read-out: Remaining enzyme activity. On the procedure: as §1, §2

Data set [14] concerns the target T13, MAP4K3 (Homo sapiens, UniProt Q8IVH8).
T13 construct: purchased Ambit (DiscoverX) KINOMEscan; Cerep
Put plainly: KINOMEscan. It counts as binding. The following applies: read-out: Remaining enzyme activity. The method, then:
as §1, §2

In data set [15] the target is T14, PFTAIRE2 (Homo sapiens, UniProt Q96Q40).
T14 construct: purchased Ambit (DiscoverX) KINOMEscan; Cerep
Kind of data set: KINOMEscan. Type of data set: binding. The following applies: read-out: Remaining enzyme activity. The method, then:
as §1, §2

Data set [16] has as its target T15, AKT3 (Homo sapiens, UniProt Q9Y243).
T15 construct: purchased Ambit (DiscoverX) KINOMEscan; Cerep
Put plainly: KINOMEscan. It counts as binding. The following applies: read-out: Remaining enzyme activity. The method, then:
as §1, §2

The target of data set [17] is T16, RPS6KA6(Kin.Dom.1-N-term) (Homo sapiens, UniProt Q9UK32).
T16 construct: RPS6KA6(Kin.Dom.1-N-term); purchased Ambit (DiscoverX) KINOMEscan; Cerep
Kind of data set: KINOMEscan. It counts as binding. The following applies: read-out: Remaining enzyme activity. The method, then: as §1, §2

Data set [18] has as its system FLT3(ITD). Kind of data set: KINOMEscan. It counts as binding, human. The following applies: 10 μM. The method, then:
as §1
For most assays, kinase-tagged T7 phage strains were grown in parallel in 24-well blocks in an Escherichia coli host derived from the BL21 strain. E. coli were grown to log-phase and infected with T7 phage from a frozen stock and incubated with shaking at 32 °C until lysis (90–150 min). The lysates were centrifuged (6,000g) and filtered (0.2 μm) to remove cell debris. The remaining kinases were produced in HEK-293 cells (Sigma Aldrich, catalogue number: 85120602) and subsequently tagged with DNA for quantitative PCR detection. […] The liganded beads were blocked with excess biotin and washed with blocking buffer (SeaBlock (Pierce), 1% bovine serum albumin, 0.05% Tween 20 and 1 mM dithiothreitol) to remove unbound ligand and to reduce non-specific phage binding. […] The kinase concentration in the eluates was measured by quantitative PCR.

Data set [19] is described as follows: PK study. Type of data set: in vivo, cynomolgus. The conditions noted are these: for half-life: 2 mg/kg. On the procedure: (§3) On the treatment day, all animals were weighed and the dosing volume was calculated for each individual animal according to its actual body weight. All animal were dosed once. Blood samples were taken at different time points and plasma was collected after centrifugation (10,000g, 10 min, 4 °C). Plasma samples were analysed by LC–MS/MS. […] All relevant observations were recorded. The PK studies in cynomolgus monkeys and beagle dogs were performed by the Laboratory of Pharmacology and Toxicology (LPT), Hamburg, and PK and toxicity studies in mice and rats were performed by the 4SC Discovery GmbH, Munich. PK parameters were obtained by a non-compartment analysis, using Kinetica 4.1 (Thermo Scientific).

Data set [20] can be described thus: Tolerability of i.v. bolus dose. The conditions noted are these: mice. Type of data set: in vivo, mouse. On the procedure:
The maximal-tolerated i.v. bolus dose of SC83288 was at 30 mg kg^−1 body weight (extrapolated initial drug plasma concentration C0 of 65,600 ng ml^−1) and 15 mg kg^−1 body weight (C0 of 27,300 ng ml^−1) in rats and mice, respectively. Observed adverse effects included ataxia, respiratory symptoms and sleepiness. However, all treated animals fully recovered within 30 min after drug application. […] Increasing the dose to 45 mg kg^−1 body weight caused apnoea in rats. The no-observed-adverse-effect level and the no-observed-effect level in rats corresponded to a tested i.v. bolus dose of 22.5 mg kg^−1 body weight (C0 of 49,200 ng ml^−1) and 15 mg kg^−1 body weight (C0 of 32,800 ng ml^−1), respectively.
as §3, with “PK parameters were obtained by a non-compartment analysis, using Kinetica 4.1 (Thermo Scientific).” left out

Data set [21] can be described thus: Allometric scaling, prediction of human PK.
Where [22] appears, read: cynomolgus monkey, plasma, iv, cynomolgus i.v. 2 mg kg^−1.

Read-outs that look alike come from different tables or passages of the source.

T12 sequence (O94921 whole entry): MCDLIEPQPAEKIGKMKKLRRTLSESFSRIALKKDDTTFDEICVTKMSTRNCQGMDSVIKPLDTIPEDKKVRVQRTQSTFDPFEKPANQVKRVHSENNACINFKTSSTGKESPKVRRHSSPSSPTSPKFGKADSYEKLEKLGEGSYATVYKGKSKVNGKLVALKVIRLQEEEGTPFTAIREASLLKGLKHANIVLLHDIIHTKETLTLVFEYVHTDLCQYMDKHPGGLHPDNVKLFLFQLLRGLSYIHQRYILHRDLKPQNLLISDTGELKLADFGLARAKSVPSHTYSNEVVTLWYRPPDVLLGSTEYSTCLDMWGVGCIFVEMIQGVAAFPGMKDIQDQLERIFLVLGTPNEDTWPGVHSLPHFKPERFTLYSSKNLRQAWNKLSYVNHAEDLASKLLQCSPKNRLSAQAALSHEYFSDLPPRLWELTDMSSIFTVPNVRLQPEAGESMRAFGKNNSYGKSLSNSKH
T3 sequence (Q9UBF8 whole entry): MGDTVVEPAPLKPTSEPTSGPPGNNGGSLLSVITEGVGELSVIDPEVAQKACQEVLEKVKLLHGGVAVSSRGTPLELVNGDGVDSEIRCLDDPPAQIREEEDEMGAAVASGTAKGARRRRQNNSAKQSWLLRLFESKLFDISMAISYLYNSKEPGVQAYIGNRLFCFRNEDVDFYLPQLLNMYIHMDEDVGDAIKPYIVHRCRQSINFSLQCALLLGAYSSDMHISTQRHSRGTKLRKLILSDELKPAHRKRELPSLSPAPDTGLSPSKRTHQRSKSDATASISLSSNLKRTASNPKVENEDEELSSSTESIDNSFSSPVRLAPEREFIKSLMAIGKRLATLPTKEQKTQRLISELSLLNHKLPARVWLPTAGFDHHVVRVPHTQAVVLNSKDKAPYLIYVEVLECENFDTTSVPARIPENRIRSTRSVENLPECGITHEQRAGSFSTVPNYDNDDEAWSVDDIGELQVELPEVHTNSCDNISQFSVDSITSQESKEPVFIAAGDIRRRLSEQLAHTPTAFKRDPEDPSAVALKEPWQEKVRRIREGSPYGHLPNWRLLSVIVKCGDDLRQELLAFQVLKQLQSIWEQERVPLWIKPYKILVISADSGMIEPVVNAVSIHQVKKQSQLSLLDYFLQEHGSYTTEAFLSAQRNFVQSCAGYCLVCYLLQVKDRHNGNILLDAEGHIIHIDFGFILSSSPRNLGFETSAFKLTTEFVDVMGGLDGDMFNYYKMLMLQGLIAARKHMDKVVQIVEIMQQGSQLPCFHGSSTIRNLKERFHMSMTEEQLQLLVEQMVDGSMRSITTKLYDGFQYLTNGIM
T14 sequence (Q96Q40 whole entry): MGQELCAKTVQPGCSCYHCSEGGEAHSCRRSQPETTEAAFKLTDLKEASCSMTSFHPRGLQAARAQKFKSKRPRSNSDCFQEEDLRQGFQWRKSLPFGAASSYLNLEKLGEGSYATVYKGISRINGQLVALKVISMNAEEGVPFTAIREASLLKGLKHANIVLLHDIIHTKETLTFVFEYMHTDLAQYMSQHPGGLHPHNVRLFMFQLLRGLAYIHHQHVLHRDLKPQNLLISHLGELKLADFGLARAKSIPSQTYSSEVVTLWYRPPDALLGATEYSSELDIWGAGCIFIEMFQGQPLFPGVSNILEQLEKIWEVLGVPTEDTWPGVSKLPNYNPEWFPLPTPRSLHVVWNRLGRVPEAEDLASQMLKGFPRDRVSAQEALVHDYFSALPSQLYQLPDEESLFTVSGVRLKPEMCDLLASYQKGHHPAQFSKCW
T16 sequence (Q9UK32 73-330 limits assumed): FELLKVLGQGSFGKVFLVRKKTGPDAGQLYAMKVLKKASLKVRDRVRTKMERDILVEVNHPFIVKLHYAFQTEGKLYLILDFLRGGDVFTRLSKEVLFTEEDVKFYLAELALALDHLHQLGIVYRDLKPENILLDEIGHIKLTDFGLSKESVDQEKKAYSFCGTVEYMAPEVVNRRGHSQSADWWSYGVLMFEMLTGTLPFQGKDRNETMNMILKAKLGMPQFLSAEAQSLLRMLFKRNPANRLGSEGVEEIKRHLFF
T13 sequence (Q8IVH8 whole entry): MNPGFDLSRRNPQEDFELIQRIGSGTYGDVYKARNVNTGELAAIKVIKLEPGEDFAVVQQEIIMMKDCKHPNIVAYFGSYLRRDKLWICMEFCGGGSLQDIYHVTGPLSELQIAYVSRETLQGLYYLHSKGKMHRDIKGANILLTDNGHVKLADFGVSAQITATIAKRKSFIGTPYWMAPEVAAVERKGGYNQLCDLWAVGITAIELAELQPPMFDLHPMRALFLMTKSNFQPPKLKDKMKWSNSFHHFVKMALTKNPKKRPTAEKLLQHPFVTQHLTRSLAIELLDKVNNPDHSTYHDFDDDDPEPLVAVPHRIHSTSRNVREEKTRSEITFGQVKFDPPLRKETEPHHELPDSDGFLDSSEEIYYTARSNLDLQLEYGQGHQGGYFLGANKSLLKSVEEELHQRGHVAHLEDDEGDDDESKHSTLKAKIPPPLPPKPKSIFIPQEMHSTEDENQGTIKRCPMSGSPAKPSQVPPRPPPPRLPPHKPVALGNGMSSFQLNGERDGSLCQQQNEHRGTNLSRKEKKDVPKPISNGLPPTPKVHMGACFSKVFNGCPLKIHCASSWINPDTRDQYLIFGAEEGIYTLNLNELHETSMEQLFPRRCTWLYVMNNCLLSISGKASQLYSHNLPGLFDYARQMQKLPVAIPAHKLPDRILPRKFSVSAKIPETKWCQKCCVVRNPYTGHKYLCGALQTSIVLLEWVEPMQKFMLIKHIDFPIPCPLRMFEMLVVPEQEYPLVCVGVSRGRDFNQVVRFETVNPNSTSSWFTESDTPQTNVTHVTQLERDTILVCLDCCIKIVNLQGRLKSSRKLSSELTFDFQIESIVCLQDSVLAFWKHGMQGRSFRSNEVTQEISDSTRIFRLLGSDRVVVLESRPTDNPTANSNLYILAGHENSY
T1 sequence (P42336 whole entry C420R): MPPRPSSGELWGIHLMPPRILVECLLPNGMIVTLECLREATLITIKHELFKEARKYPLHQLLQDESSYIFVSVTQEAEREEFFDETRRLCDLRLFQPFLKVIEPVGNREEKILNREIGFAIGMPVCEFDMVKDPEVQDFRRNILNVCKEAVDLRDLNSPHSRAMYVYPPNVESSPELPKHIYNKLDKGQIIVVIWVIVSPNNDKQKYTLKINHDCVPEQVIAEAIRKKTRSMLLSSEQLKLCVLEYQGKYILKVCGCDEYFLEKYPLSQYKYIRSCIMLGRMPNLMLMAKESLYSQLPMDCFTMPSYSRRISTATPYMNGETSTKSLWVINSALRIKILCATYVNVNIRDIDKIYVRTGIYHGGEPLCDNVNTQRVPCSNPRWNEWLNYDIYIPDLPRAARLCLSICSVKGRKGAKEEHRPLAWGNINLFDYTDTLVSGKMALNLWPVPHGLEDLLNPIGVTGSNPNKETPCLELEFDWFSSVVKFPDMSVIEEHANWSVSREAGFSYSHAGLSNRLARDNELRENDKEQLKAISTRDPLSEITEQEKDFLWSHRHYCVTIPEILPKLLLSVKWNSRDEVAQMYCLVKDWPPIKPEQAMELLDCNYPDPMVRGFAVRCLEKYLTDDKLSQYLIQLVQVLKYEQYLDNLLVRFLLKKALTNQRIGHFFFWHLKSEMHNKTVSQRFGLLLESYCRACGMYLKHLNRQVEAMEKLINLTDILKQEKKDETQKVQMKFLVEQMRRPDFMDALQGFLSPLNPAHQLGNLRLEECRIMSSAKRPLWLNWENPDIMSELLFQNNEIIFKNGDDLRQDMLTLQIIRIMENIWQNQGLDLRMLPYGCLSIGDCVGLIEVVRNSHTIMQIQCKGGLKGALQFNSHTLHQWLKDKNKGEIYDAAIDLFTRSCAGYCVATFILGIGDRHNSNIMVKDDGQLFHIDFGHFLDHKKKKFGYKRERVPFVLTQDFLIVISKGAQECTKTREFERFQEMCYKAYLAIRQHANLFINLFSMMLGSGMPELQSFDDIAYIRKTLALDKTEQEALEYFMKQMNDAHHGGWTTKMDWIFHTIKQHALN
T9 sequence (P10721 26-976 D816V): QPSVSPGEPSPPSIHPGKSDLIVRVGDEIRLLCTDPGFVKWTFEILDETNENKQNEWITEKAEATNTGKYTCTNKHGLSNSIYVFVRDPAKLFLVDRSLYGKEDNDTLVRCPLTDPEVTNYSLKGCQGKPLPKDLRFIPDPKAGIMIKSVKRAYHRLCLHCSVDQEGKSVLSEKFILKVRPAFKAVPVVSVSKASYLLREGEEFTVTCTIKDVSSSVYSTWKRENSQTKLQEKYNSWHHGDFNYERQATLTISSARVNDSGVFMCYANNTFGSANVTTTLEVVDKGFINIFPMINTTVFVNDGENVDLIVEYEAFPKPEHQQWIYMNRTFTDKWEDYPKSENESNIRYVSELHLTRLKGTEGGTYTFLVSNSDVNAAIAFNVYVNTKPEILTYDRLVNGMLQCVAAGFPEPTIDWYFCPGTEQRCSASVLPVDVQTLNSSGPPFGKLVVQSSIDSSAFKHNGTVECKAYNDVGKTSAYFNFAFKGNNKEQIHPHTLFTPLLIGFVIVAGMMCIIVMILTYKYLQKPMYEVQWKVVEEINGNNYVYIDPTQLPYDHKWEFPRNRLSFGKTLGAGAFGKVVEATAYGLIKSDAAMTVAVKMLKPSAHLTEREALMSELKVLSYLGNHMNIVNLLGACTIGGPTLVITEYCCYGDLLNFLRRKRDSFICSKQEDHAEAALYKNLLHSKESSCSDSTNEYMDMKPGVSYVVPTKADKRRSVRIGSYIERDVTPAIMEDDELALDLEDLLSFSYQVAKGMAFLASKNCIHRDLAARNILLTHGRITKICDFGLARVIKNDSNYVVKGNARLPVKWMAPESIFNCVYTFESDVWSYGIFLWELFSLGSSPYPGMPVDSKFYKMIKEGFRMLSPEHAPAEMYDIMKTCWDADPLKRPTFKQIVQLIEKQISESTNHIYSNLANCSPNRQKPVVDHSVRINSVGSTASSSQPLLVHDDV

In the case of `CCCCN1CCN(C(=N)c2cccc(NC(=O)Nc3ccc(S(=O)(=O)NCc4ccc(S(N)(=O)=O)cc4)cc3)c2)CC1` [SC81458, 4-(3-(3-((4-butylpiperazin-1-yl)(imino)methyl)phenyl)ureido)-N-(4-sulfamoylbenzyl) benzenesulfonamide], the “In vivo logPRR” value in data set [1] came to 3.2. In addition, the remaining binding at 10 µM was 100% in data set [2]; 96% in data set [3]; 100% in data set [4]; 100% in data set [5]; 95% in [6]; 100% in data set [7]. Moreover, the remaining binding at 10 µM in data set [8] is 87%; in data set [9] it was 100%; in data set [10] it was 100%; in data set [11] it was 100%; in data set [12] it was 100%; in data set [13] it was 100%. In addition, the remaining binding at 10 µM in data set [14] amounted to 95%; in [15] it was 100%; in data set [16], 66%; in [17], 68%. Also, in [18], the Remaining enzyme activity amounted to 85%.
On to `COC(=O)N1CCN(C(=N)c2cccc(NC(=O)Nc3ccc(S(=O)(=O)NCc4ccc(S(N)(=O)=O)cc4)cc3)c2)CC1` [SC83288, methyl 4-(imino(3-(3-(4-(N-(4-sulfamoylbenzyl)sulfamoyl)phenyl)ureido)phenyl)methyl) piperazine-1-carboxylate], for which the half-life in data set [19] (cynomolgus monkey, plasma, iv, cynomolgus i.v. 2 mg kg^−1, read-out: t1/2 effective) was found to be 1.03 h. For the same molecule, in data set [19] (cynomolgus monkey, plasma, iv, cynomolgus i.v. 2 mg kg^−1, read-out: t1/2 initial), the half-life stood at 0.267 h. Besides, the half-life in data set [19] (cynomolgus monkey, plasma, iv, cynomolgus i.v. 2 mg kg^−1, read-out: t1/2 terminal) was 5.33 h. Moreover, in data set [19] (setting [22]), the AUC(0-inf) was 4250 ng·h/mL, the C0 came to 7340 ng/mL, the peak level (Cmax) was 6570 ng/mL and the Tmax was 5 min. The clearance in data set [19] (setting [22]) was 7.83 mL/min/kg. The MRT last in [19] (cynomolgus monkey, plasma, iv, cynomolgus i.v. 2 mg kg^−1, read-out: MRT0-t) came out at 1.5 h. Moreover, in [19] (cynomolgus, i.v. 2 mg kg^−1), the “C0 as multiple of the free MPC” value is recorded as about 17 times and the VC stood at 0.273 L/kg. In addition, the “maximal-tolerated i.v. bolus dose” value in data set [20] was 15 mg kg^−1 body weight. In addition, the C0 in [20] (mouse, plasma, iv, 15 mg kg^−1 i.v. bolus, read-out: extrapolated C0) was 27300 ng/mL. The “predicted human plasma clearance” value in [21] (allometric scaling, rule of exponents) was 14.7 L/h. The “total plasma clearance rate (higher estimate)” value in data set [21] (human) is 15,180 ml h^−1. Also, in data set [21] (human projection, assuming 78% plasma protein binding), the “total plasma concentration for […] the free MPC” value is 860 ng/mL.
